The numbers were not newly measured in patent US20100330150A1, “Orally Disintegrating Tablet Compositions Comprising Combinations of High and Low-Dose Drugs” (priority 2009, published 2010), which cites them from elsewhere.

The subject of one series is serum protein. The following applies: after normal therapeutic dosages.

Regarding `CC(=O)Nc1ccc(O)cc1` [acetaminophen], the Plasma half-life (normal, healthy patients) was 1 to 2.5 h. Where the note is “oral administration”, the “Time after which only traces of the drug are detectable” value is “about 8 hours” and the “Time at which peak plasma concentrations are attained” value is 30 to 60 min. Besides, the “Binding to serum protein” value in the series with serum protein was “about 25%”.
